Data set [1] relates to human breast cancer cell line ZR-75-1. Description: Assay for cell growth inhibitory activity (3D hydrogel culture, CCK-8). It counts as cell-based. The conditions noted are these: 96 h; for viability at 0.0001 µM: ZR-75-1, 0.1 nM, read-out: Cell survival rate at example drug concentration 0.1 nM; for viability at 0.001 µM: ZR-75-1, 1 nM, read-out: Cell survival rate at example drug concentration 1 nM; for viability at 0.01 µM: ZR-75-1, 10 nM, read-out: Cell survival rate at example drug concentration 10 nM; for viability at 0.1 µM: ZR-75-1, 100 nM, read-out: Cell survival rate at example drug concentration 100 nM; for viability at 1 µM: ZR-75-1, 1000 nM, read-out: Cell survival rate at example drug concentration 1000 nM. Here is the method:
The human breast cancer cell line ZR-75-1 (1 × 10^^6 cells per cell culture dish with 100-mm diameter) was cultured in a 1640 culture medium, and 1% double antibiotics (streptomycin and penicillin), 10% fetal bovine serum (FBS), and 1% glutamine (Glumax) were added simultaneously. The cell culture dish was placed at 37 °C with 5% CO2 for 2 days for culture until the cell confluence reached 80%-90% to give cells in the logarithmic growth phase.
• 1) The example compounds were each dissolved in dimethylsulfoxide to give solutions at a concentration of 10 mmol/L, and the solutions were diluted to 250 µmol/L in 10-fold gradient for 5 concentrations, i.e., 0.2 nmol/L, 2 nmol/L, 20 nmol/L, 200 nmol/L, and 2000 nmol/L. • 2) Blank control wells were prepared by adding 0.1% dimethylsulfoxide to the cultured cells, and were used as high-reading control wells; cell-free 3D hydrogel was used as background wells. • 3) The cultured cells were separately added to the compounds in the examples at 0.2 nmol/L, 2 nmol/L, 20 nmol/L, 200 nmol/L, and 2000 nmol/L as test wells, with the same volumes as the original culture solutions.
• 1) The cells were collected, resuspended in a PBS balanced salt solution, and counted; and the cells were mixed with the 3D hydrogel stock solution and prepared into hydrogel cell suspensions with proper density. • 2) The 3D hydrogel cell suspension (5 × 10^^4 cells) was added to each well in 96-well cell culture plates with low surface adsorption, and the plates were incubated at 37 °C with 5% CO2 for 20 min. • 3) The complete culture medium containing the compound prepared in 1.2 with an equal volume to that of the cell suspension in step 2 was added to the 96-well cell culture plate. • 4) The cells were cultured at 37 °C in a 5% CO2 incubator for 96 h.
• 1) The complete culture medium in the upper layer above the hydrogel was pipetted from each well of the 96-well cell culture plate with a vacuum pump or a manual pipette with careful processing to avoid breaking the hydrogel lower layer. • 2) The complete culture medium containing the CCK-8 substrate with an equal volume to that of the original hydrogel was added to each well. • 3) The plate was cultured at 37 °C with 5% CO2 for 1 h. • 4) The 96-well cell culture plate was placed in a microplate reader, and the values of A450 and A630 were separately detected.
Data analysis: The relative inhibitory level was analyzed by using Excel software, and the survival rates of cells under different compound culture conditions were obtained; [formula]
High-reading control well: cells + dimethylsulfoxide; background well: cell-free hydrogel. Table 7. Cell proliferation inhibitory activity of some of example compounds

Data set [2] is described as follows: Assay for plasma protein binding rate (equilibrium dialysis), human plasma. The data set is classed as in vitro ADME. The conditions noted are these: dialysis 6 h at 37 °C, read-out: Human (Fu%). The procedure:
1.1 Preparation of compounds: The compounds prepared in the examples were each dissolved in dimethylsulfoxide to give solutions at a concentration of 10 mmol/L. • 1) The example compounds were each diluted from 10 mmol/L stock solution to 0.2 mmol/L, i.e., 1 µL of the compound was added to 49 µL of DMSO; • 2) 3 µL of 0.2 mmol/L test compounds were added to 597 µL of blood plasma, and the mixtures were vortexed at 1000 rpm for 2 min; • 3) 50 µL of the plasma containing the drug in 2) was taken, 50 µL of PBS was added, and 300 µL of methanol internal standard* was added to serve as a sample T0; • 4) 120 µL of the plasma containing the drug in 2) was taken and added to one side of an HTD device membrane, and 120 µL of PBS was added to the other side of the membrane; a breathable film was covered, and the plasma and the residual sample in 2) were balanced at 37 °C (100 rpm and 5% CO2) for 6 h; • 5) 50 µL of the dialyzed plasma side sample was taken, 50 µL of PBS was added, and 300 µL of methanol internal standard* was added to serve as a sample P; • 6) 50 µL of the dialyzed PBS side sample was taken, 50 µL of blank plasma was added, and 300 µL of methanol internal standard* was added to serve as a sample B; • 7) 50 µL of the plasma containing the drug in 2) was taken, 50 µL of PBS was added, and 300 µL of methanol internal standard* was added to serve as a sample T6; • 8) All samples were vortexed, mixed homogeneously, and then centrifuged at 3220 g for 40 min at 4 °C; • 9) 100 µL of the supernatant and 100 µL of purified water were mixed homogenously for liquid chromatography-mass spectrometry.
An internal standard method was used, and the plasma protein binding rate, recovery rate, and residual percentage were calculated by using Excel according to the ratio of the peak area of the sample to the peak area of the internal standard. Free rate(%) = (RatioB)/(RatioP) × 100% [formula] Binding rate(%) = 100%−Free rate% [formula] Recovery rate(%) = (RatioB + RatioP)/(RatioT0) × 100% [formula] Remaining percentage(%) = (RatioT6)/(RatioT0) × 100% [formula]
RatioB: a ratio of the peak area of the test substance on the PBS side to the peak area of the internal standard; RatioP: a ratio of the peak area of the test substance on the plasma side to the peak area of the internal standard; RatioT6: a ratio of the peak area of the sample after incubation with the test substance for 6 h to the peak area of the internal standard; RatioT0: a ratio of the peak area of the sample after incubation with the test substance for 0 h to the peak area of the internal standard. Table 8. Plasma protein binding rate (Fu%) data for various species of example compounds

As to `COc1cc2c(cc1S(=O)(=O)Nc1noc3cc(Cn4cccn4)nc(OC)c13)CCCC2` [Example 2, N-(6-((1H-Pyrazol-1-yl)methyl)-4-methoxyisoxazolo[4,5-c]pyridin-3-yl)-3-methoxy-5,6,7,8-tetrahydronaphthalene-2-sulfonamide], in data set [1], the viability at 0.0001 µM came to 63%, the viability at 0.001 µM was 51%, the viability at 0.01 µM turned out to be 43% and the viability at 0.1 µM was 43%. Besides, in data set [1], the viability at 1 µM came to 40%. Moreover, the fraction unbound at 6 h, 1 µM in data set [2] was 0.0099.

Turning to `COc1nc(Cn2cccn2)cc2onc(NS(=O)(=O)c3cccc4c3OCCO4)c12` [Example 4, N-(6-((1H-Pyrazol-1-yl)methyl)-4-methoxyisoxazolo[4,5-c]pyridin-3-yl)-2,3-dihydrobenzo[b][1,4]dioxine-5-sulfonamide], in data set [1], the viability at 0.0001 µM was found to be 75%, the viability at 0.001 µM was determined as 61%, the viability at 0.01 µM was determined as 41% and the viability at 0.1 µM worked out at 37%. The viability at 1 µM in data set [1] was determined as 29%.

Turning to `COc1nc(Cn2cccn2)cc2onc(NS(=O)(=O)c3cccc4ccoc34)c12` [Example 5, N-(6-((1H-Pyrazol-1-yl)methyl)-4-methoxyisoxazolo[4,5-c]pyridin-3-yl)benzofuran-7-sulfonamide], in data set [1], the viability at 0.0001 µM amounted to 80%, the viability at 0.001 µM is 85%, the viability at 0.01 µM is 69% and the viability at 0.1 µM was found to be 54%. For the same compound, the viability at 1 µM in data set [1] was 35%.

Regarding `COc1ccc2c(c1S(=O)(=O)Nc1noc3cc(Cn4cccn4)nc(OC)c13)OCC2` [Example 9, N-(6-((1H-Pyrazol-1-yl)methyl)-4-methoxyisoxazolo[4,5-c]pyridin-3-yl)-6-methoxy-2,3-dihydrobenzofuran-7-sulfonamide], in data set [1], the viability at 0.0001 µM was 63%, the viability at 0.001 µM was determined as 48%, the viability at 0.01 µM was 41% and the viability at 0.1 µM came out at 38%. The viability at 1 µM in data set [1] stood at 32%. Besides, the fraction unbound at 6 h, 1 µM in data set [2] stood at 0.0069.

Turning to `COc1ccc2ccoc2c1S(=O)(=O)Nc1noc2cc(Cn3cccn3)nc(OC)c12` [Example 10, N-(6-((1H-Pyrazol-1-yl)methyl)-4-methoxyisoxazolo[4,5-c]pyridin-3-yl)-6-methoxybenzofuran-7-sulfonamide], in data set [1], the viability at 0.0001 µM was 62%, the viability at 0.001 µM was 45%, the viability at 0.01 µM amounted to 39% and the viability at 0.1 µM amounted to 33%. Besides, in data set [1], the viability at 1 µM is 29%. Also, the fraction unbound at 6 h, 1 µM in data set [2] came to 0.0073.

Take `COc1cc2c(cc1S(=O)(=O)Nc1noc3cc(Cn4cccn4)nc(OC)c13)OCC2` [Example 59, N-(6-((1H-Pyrazol-1-yl)methyl)-4-methoxyisoxazolo[4,5-c]pyridin-3-yl)-5-methoxy-2,3-dihydrobenzofuran-6-sulfonamide]: the fraction unbound at 6 h, 1 µM in data set [2] was 0.0248.

Regarding `COc1cc2c(cc1S(=O)(=O)Nc1noc3cc(Cn4cccn4)nc(OC)c13)CCCO2` [Example 76, N-(6-((1H-Pyrazol-1-yl)methyl)-4-methoxyisoxazolo[4,5-c]pyridin-3-yl)-7-methoxy-3,4-dihydro-1H-benzopyran-6-sulfonamide], in data set [2], the fraction unbound at 6 h, 1 µM is 0.0118.
